What was measured:
[1] = background statement; cited from earlier work
5-HT7 (h) = 5-HT7 (h) (Homo sapiens, UniProt P34969); details: range of concentrations; FIG. 2
Description: The apparent dissociation constants for antagonists Kb were calculated using the modified Cheng Prusoff equation.

5-HT3 (h) = 5-HT3 (h) (Homo sapiens, UniProt P46098); assay: biochemical; details: read-out: % Inhib.
Excerpt: (§1) Briefly, recombinant 5-HT7 receptors were expressed in a CHO cell line. The receptors were then saturated with a tritiated receptor-specific ligand at concentrations known to be saturating.

5-HT1D = 5-HT1D (Rattus norvegicus, UniProt P28565); assay: biochemical; details: read-out: % Inhib.
Excerpt: as §1

5-HT6 (h) = 5-HT6 (h) (Homo sapiens, UniProt P50406); assay: biochemical; details: read-out: % Inhib.
Excerpt: as §1

5-HT5A (h) = 5-HT5A (h) (Homo sapiens, UniProt P47898); assay: biochemical; details: read-out: % Inhib.
Excerpt: as §1

5-HT4e (h) = 5-HT4e (h) (Homo sapiens, UniProt Q13639); assay: biochemical; details: read-out: % Inhib.
Excerpt: as §1

[2] = biological target: noradrenergic reuptake transporters (Homo sapiens, UniProt P23975); details: Tatsumi et al [1997]; cited from earlier work
[3] = biological target: serotonin reuptake inhibitor (Homo sapiens, UniProt P31645); details: very weak activity; Tatsumi et al [1997]; cited from earlier work
Sequence of serotonin reuptake inhibitor (P31645 whole entry): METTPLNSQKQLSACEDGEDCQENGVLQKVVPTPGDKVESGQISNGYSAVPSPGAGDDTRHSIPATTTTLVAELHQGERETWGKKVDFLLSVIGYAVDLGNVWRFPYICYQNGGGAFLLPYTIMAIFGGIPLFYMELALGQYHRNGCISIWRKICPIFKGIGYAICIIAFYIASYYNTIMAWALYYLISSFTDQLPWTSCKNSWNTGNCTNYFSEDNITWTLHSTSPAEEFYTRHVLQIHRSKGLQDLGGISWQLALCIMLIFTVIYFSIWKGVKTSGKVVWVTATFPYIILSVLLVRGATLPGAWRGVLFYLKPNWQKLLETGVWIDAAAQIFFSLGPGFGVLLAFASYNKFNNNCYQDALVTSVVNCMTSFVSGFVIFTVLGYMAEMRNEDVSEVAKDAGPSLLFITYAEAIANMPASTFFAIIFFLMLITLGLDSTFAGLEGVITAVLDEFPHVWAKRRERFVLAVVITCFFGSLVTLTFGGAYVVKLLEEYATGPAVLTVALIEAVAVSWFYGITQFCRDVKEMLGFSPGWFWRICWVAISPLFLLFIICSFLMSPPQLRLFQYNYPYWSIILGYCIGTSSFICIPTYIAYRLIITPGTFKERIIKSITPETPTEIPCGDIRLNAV

Sequence of 5-HT7 (h) (P34969 whole entry): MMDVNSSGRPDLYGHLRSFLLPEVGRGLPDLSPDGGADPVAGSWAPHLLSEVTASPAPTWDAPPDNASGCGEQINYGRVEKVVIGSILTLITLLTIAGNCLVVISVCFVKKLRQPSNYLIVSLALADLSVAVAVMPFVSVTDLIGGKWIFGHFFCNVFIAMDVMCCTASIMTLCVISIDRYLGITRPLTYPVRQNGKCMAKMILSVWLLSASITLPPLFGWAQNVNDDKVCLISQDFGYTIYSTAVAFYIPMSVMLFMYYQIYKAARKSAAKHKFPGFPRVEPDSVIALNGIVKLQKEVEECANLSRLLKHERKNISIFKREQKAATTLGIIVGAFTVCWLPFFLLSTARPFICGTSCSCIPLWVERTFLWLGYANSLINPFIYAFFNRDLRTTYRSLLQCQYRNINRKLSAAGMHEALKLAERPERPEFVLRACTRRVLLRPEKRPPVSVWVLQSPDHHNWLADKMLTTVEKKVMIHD
Sequence of 5-HT1D (P28565 whole entry): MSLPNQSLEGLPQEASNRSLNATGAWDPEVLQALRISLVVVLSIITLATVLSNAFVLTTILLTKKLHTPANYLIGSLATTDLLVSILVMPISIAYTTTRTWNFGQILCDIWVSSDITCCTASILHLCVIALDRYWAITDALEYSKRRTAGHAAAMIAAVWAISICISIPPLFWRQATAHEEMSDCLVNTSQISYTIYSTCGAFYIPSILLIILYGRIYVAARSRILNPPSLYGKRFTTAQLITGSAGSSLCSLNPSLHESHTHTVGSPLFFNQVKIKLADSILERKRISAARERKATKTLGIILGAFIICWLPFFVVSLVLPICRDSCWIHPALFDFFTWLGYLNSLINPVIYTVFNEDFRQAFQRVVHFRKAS
Sequence of 5-HT4e (h) (Q13639 1-378 isoform Q13639-5): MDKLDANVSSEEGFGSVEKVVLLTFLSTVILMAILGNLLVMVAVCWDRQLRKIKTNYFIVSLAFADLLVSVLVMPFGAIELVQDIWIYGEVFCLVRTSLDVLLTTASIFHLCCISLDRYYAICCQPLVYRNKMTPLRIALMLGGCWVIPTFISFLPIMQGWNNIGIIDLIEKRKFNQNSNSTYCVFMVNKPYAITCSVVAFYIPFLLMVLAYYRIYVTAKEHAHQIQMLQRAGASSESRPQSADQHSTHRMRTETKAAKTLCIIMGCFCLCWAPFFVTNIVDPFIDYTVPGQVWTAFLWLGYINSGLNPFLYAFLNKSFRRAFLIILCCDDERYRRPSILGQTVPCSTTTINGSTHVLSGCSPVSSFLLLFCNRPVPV
Sequence of 5-HT3 (h) (P46098 24-478): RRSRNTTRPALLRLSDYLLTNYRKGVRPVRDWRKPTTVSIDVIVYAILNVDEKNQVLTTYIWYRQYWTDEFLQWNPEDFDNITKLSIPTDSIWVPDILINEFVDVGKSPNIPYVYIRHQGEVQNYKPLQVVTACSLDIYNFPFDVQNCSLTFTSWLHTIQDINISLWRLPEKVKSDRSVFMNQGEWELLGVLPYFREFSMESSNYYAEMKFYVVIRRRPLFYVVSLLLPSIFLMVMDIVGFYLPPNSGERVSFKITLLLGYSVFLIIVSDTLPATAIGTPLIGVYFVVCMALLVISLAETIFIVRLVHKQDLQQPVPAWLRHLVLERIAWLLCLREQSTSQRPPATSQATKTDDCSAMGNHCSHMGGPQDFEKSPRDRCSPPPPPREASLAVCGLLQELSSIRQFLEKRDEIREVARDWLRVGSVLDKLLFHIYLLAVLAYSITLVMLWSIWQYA
Sequence of 5-HT5A (h) (P47898 whole entry): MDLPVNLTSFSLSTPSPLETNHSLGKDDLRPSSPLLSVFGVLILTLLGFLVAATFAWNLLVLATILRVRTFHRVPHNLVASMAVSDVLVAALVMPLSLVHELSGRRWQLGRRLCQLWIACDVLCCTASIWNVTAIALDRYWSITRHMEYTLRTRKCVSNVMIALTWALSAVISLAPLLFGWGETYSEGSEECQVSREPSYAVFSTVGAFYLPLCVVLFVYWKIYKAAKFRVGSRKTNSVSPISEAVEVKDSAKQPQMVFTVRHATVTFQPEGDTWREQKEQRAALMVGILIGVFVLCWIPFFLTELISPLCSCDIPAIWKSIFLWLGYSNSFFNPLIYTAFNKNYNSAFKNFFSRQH
Sequence of noradrenergic reuptake transporters (P23975 whole entry): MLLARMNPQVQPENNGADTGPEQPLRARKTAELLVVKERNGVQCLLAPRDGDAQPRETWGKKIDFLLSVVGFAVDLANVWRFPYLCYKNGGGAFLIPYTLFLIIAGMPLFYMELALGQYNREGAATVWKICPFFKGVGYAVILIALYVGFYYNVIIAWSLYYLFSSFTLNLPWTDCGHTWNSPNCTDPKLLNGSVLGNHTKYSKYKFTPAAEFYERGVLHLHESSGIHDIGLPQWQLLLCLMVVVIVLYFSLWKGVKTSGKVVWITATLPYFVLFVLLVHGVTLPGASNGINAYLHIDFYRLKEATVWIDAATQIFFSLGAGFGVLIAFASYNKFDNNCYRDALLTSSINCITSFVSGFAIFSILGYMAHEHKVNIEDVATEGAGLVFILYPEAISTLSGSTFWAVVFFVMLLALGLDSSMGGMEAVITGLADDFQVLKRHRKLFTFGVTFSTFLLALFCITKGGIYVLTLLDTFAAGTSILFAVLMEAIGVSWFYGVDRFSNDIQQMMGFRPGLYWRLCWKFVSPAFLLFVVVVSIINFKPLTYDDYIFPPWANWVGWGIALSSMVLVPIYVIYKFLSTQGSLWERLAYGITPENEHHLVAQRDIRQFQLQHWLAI
Sequence of 5-HT6 (h) (P50406 whole entry): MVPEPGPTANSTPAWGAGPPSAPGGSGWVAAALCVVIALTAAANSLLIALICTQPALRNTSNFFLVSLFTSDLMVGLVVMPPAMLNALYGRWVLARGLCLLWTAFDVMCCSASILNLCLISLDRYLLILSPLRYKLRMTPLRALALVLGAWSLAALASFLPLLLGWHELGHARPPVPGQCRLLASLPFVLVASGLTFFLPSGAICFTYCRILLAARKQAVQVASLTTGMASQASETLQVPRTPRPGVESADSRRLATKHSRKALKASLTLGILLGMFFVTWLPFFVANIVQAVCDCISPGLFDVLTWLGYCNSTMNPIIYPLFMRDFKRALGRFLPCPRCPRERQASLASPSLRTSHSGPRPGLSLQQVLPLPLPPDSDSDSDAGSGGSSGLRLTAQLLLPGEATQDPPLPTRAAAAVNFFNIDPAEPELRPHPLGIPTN

| Structure (SMILES) | pharmacological activity relative to R(+)-isomer [1] | agonist effect (cAMP response) (5-HT7 (h)) | inhibition at 0.0005 µM (5-HT3 (h)) [%] | inhibition at 0.001 µM (5-HT1D) [%] | inhibition at 0.002 µM (5-HT6 (h)) [%] | inhibition at 0.001 µM (5-HT5A (h)) [%] | inhibition at 0.0003 µM (5-HT4e (h)) [%] | inhibition of noradrenergic reuptake transporters [2] [nM] | activity at the serotonin reuptake inhibitor [3] [μm] |
| --- | --- | --- | --- | --- | --- | --- | --- | --- | --- |
| CCOc1ccccc1OC[C@@H]1CNCCO1 (single isomer, unassigned) [S(−)-isomer] | five times more pharmacologically active than the R(+)-isomer |  |  |  |  |  |  |  |  |
| CCOc1ccccc1OCC1CNCCO1 (racemic) [viloxazine, Viloxazine] |  | no measurable response | 18 | 18 | 6 | 15 | 16 | 155 | 17.3 |
